In ChEMBL document CHEMBL4229400, “Covalent inhibitors of nicotinamide N-methyltransferase (NNMT) provide evidence for target engagement challenges in situ” (Bioorg Med Chem Lett, 2018):
Active and inactive are the calls of the source. The calls are words filed in the database; no cut-off is given here.

Key:
[1] = target: T1, Nicotinamide N-methyltransferase (Homo sapiens) (UniProt P40261); experiment: Inhibition of NNMT in human 786-O cell lysate using d4-nicotinamide as substrate preincubated for 1 hr followed by substrate and SAM addition measured after 15 to 30 mins by LC-MS analysis
T1 sequence (whole entry): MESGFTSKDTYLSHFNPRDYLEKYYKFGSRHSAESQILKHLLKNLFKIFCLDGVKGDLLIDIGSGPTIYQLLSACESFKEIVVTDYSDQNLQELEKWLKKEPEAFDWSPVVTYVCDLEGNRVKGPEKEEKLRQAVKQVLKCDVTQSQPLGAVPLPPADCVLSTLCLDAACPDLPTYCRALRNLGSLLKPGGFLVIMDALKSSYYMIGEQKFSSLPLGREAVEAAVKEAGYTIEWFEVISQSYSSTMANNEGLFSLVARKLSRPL

[2] = target: T1, Nicotinamide N-methyltransferase (Homo sapiens); experiment: Inhibition of SAH-rhodamine binding to NNMT in human 786-O cell soluble proteomic lysate assessed as ratio of observed rate constant to test compound concentration preincubated for 10 to 40 mins followed by SAH-rhodamine addition measured after 5 mins by Gel-based ABPP analysis
[3] = target: T2, Nicotinamide N-methyltransferase (Homo sapiens, UniProt P40261); experiment: Inhibition of NNMT in human 786-O cell lysate using d4-nicotinamide as substrate pretreated for 1 hr at 3 mins post 160 uM SAM addition followed by substrate addition measured after 15 to 30 mins by LC-MS analysis
T2 sequence (P40261 whole entry): T1 sequence (whole entry)

[4] = target: T2, Nicotinamide N-methyltransferase; experiment: Inhibition of NNMT in human 786-O cell lysate using d4-nicotinamide as substrate pretreated for 1 hr at 3 mins post 80 uM SAM addition followed by substrate addition measured after 15 to 30 mins by LC-MS analysis
[5] = target: T2, Nicotinamide N-methyltransferase; experiment: Inhibition of NNMT in human 786-O cell lysate using d4-nicotinamide as substrate pretreated for 1 hr at 3 mins post 40 uM SAM addition followed by substrate addition measured after 15 to 30 mins by LC-MS analysis
[6] = target: T2, Nicotinamide N-methyltransferase; experiment: Inhibition of NNMT in human 786-O cell lysate using d4-nicotinamide as substrate pretreated for 1 hr at 3 mins post 20 uM SAM addition followed by substrate addition measured after 15 to 30 mins by LC-MS analysis
[7] = target: T1, Nicotinamide N-methyltransferase (Homo sapiens); experiment: Binding affinity to NNMT C165 residue in human 786-O cell lysate at 5 uM incubated for 4 hrs followed by cell lysis by IA-alkyne probe based isoTOP-ABPP analysis
[8] = target: Receptor expression-enhancing protein 5 (Homo sapiens) (UniProt Q00765); experiment: Binding affinity to REEP5 cysteine residue in human 786-O cell soluble proteomic lysate at 5 uM incubated for 1 hr followed by cell lysis by IA-alkyne probe based isoTOP-ABPP analysis
[9] = target: T3, Thioredoxin domain-containing protein 17 (Homo sapiens) (UniProt Q9BRA2); experiment: Binding affinity to TXNDC17 cysteine residue in human 786-O cell soluble proteomic lysate at 5 uM incubated for 1 hr followed by cell lysis by IA-alkyne probe based isoTOP-ABPP analysis
T3 sequence (whole entry): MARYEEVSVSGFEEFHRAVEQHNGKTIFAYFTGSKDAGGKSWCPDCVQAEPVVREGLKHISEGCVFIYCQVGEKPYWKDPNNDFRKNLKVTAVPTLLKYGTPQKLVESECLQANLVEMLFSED

[10] = target: T1, Nicotinamide N-methyltransferase (Homo sapiens); experiment: Binding affinity to NNMT C165 residue in human 786-O cell soluble proteomic lysate at 5 uM incubated for 1 hr followed by cell lysis by IA-alkyne probe based isoTOP-ABPP analysis relative to control
[11] = target: T4, Mitochondrial-processing peptidase subunit alpha (Homo sapiens) (UniProt Q10713); experiment: Binding affinity to PMPCA cysteine residue in human 786-O cell soluble proteomic lysate at 5 uM incubated for 1 hr followed by cell lysis by IA-alkyne probe based isoTOP-ABPP analysis
T4 sequence (whole entry): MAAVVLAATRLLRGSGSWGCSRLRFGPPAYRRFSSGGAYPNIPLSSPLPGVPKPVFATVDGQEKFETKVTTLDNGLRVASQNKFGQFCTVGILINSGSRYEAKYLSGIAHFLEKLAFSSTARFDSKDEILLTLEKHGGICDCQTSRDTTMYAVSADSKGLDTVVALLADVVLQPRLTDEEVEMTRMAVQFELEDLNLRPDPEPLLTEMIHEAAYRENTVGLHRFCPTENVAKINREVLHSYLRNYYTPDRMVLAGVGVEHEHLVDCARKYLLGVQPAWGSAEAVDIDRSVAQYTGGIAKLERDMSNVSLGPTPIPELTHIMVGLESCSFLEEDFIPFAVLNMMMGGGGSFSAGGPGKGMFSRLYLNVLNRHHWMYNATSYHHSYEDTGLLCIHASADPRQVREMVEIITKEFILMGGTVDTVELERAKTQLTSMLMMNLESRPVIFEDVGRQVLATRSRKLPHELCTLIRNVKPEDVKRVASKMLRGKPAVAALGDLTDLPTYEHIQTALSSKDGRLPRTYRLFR

[12] = target: T5, Zyxin (Homo sapiens) (UniProt Q15942); experiment: Binding affinity to ZYX cysteine residue in human 786-O cell soluble proteomic lysate at 5 uM incubated for 1 hr followed by cell lysis by IA-alkyne probe based isoTOP-ABPP analysis
T5 sequence (whole entry): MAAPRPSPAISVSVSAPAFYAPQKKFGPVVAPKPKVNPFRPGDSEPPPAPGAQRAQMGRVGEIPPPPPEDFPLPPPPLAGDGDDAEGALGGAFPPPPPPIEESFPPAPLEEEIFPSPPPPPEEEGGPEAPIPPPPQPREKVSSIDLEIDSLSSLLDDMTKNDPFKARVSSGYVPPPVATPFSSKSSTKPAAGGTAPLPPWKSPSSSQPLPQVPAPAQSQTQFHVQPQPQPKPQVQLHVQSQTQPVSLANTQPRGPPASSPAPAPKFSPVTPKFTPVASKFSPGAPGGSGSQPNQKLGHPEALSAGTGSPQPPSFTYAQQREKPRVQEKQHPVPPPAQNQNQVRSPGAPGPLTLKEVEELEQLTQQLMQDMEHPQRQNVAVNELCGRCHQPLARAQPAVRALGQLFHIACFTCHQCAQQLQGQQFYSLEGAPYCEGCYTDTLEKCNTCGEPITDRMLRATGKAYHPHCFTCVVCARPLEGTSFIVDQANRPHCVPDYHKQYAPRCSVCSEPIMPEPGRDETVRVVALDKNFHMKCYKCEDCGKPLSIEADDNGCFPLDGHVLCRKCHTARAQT

Chain of Receptor expression-enhancing protein 5 (Homo sapiens) (Q00765 whole entry, the tested form may be a part): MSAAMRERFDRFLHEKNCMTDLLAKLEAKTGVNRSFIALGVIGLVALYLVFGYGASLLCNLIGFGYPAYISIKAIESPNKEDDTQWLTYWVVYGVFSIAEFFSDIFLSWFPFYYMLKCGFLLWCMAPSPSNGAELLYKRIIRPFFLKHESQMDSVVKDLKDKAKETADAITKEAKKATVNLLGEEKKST

SMILES	inhibition [1]	Ratio [2] [M⁻¹ s⁻¹]	IC50 [3] [µM]	IC50 [4] [µM]	IC50 [5] [µM]	IC50 [6] [µM]	Activity [7]	Activity [8]	Activity [9]	Activity [10]	Activity [11]	Activity [12]
CC(C)CCN(C(=O)CCl)c1cc(C(=O)NCc2cccc([N+](=O)[O-])c2)cc(C(F)(F)F)c1	Dose-dependent effect	285	> 100	39	10	6.2	inactive	Active	Active			
O=C(Nc1cccnc1Cl)c1cc(N(CCCc2ccccc2)C(=O)CCl)cc(C(F)(F)F)c1										inactive	Active	Active
